Laboratory results as given in patent US12522607B2, “Substituted pyrazolo[3,4-d]pyrimidines as wee-1 inhibitors” (WIGEN BIOMEDICINE TECHNOLOGY (SHANGHAI) CO., LTD., priority 2020, dated 2026).

Columns and labels:
Wee-1 kinase = target: T1, Wee-1 kinase (Homo sapiens, UniProt P30291); assay: Inhibitory activity against Wee-1 kinase (Lanthra Screen Wee-1 kinase kit, Tracer 178); type: binding; settings: Wee-1 kinase 5 nM, Tracer 178 50 nM, 1 h room temperature
T1 construct: purchased Invitrogen
Method in brief: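 LanthaScreen binding format: Wee-1 kinase (5 nM final) with Eu-anti-GST antibody (2 nM final) and kinase Tracer 178 (50 nM final), compounds serially diluted in DMSO. 1 h at room temperature before reading. IC50 relative to DMSO control.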

HT29 cells = assay: Antiproliferative activity against HT29 cells (Cell Titer-Lumi, ATP content); type: cell-based; settings: Homo sapiens, HT-29, 72 after compound addition, read-out: HT-29 cells Anti-proliferative activity (IC50 for the inhibition against HT-29 cell growth)
Method in brief: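 3000 cells per well, allowed to adhere overnight, then exposed to a gradient dilution of compound for 72 (units as printed). Cellular ATP read by luminescence (Cell Titer-Lumi) as a growth measure; IC50 for growth inhibition calculated.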

T1 sequence (P30291 whole entry): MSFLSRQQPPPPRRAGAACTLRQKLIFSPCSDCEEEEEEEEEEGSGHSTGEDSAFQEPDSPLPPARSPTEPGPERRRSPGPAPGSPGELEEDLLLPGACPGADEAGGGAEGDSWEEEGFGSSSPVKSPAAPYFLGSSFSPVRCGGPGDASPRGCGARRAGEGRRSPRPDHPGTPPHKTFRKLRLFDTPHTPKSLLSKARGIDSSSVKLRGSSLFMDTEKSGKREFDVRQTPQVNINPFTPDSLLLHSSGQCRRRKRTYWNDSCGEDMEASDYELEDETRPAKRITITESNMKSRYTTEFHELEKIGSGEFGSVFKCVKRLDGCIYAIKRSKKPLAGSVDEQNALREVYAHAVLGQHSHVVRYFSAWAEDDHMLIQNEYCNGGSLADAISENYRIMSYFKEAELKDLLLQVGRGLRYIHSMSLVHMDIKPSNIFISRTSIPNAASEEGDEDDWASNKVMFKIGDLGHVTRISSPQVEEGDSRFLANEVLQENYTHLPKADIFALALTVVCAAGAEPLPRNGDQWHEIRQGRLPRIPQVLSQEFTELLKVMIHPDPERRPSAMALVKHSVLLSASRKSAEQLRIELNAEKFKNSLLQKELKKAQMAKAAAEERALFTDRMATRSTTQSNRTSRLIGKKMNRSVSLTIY

Question: For `CCn1c(=O)c2cnc(Nc3ccc(N4CCN(C)CC4)c(C)c3)nc2n1-c1cc(F)c(=O)n(C(C)C)c1` [Compound 316], which IC50 (Wee-1 kinase) is on record?
Answer: Its IC50 is ≤ 30 nM.

Question: What about the IC50 (HT29 cells) of the same compound?
Answer: Its IC50 is ≤ 1000 nM.

Question: `CCn1c(=O)c2cnc(Nc3ccc(C4CCN(C)CC4)c(C)c3)nc2n1-c1cc(F)c(=O)n(C(C)C)c1` [Compound 317] was tested. Which IC50 (Wee-1 kinase) did it give?
Answer: The IC50 was ≤ 30 nM.

Question: And the IC50 (HT29 cells)?
Answer: Its IC50 is ≤ 1000 nM.

Question: `CCn1c(=O)c2cnc(Nc3ccc4c(c3)CN(C)CC43CC3)nc2n1-c1cc(F)c(=O)n(C(C)C)c1` [Compound 318] was tested. Which IC50 (Wee-1 kinase) did it give?
Answer: Its IC50 is ≤ 30 nM.

Question: What about the IC50 (HT29 cells) of the same compound?
Answer: The IC50 was ≤ 1000 nM.

Question: How did the IC50 (Wee-1 kinase) turn out when `CC(C)n1cc(-n2c3nc(Nc4ccc(N5CCN(C)CC5)cc4)ncc3c(=O)n2C(C)C)cc(F)c1=O` [Compound 319] was run?
Answer: The IC50 was ≤ 30 nM.

Question: What about the IC50 (HT29 cells) of the same compound?
Answer: The IC50 was ≤ 1000 nM.

Question: How did the IC50 (Wee-1 kinase) turn out when `Cc1cc(Nc2ncc3c(=O)n(C(C)C)n(-c4cc(F)c(=O)n(C(C)C)c4)c3n2)ccc1N1CCN(C)CC1` [Compound 320] was run?
Answer: Its IC50 is ≤ 30 nM.

Question: And the IC50 (HT29 cells)?
Answer: Its IC50 is ≤ 1000 nM.

Question: For `Cc1cc(Nc2ncc3c(=O)n(C(C)C)n(-c4cc(F)c(=O)n(C(C)C)c4)c3n2)ccc1C1CCN(C)CC1` [Compound 321], which IC50 (Wee-1 kinase) is on record?
Answer: The IC50 was ≤ 30 nM.

Question: What about the IC50 (HT29 cells) of the same compound?
Answer: Its IC50 is ≤ 1000 nM.

Question: Which results are given for `CC(C)n1cc(-n2c3nc(Nc4ccc5c(c4)CN(C)CC54CC4)ncc3c(=O)n2C(C)C)cc(F)c1=O` [Compound 322]?
Answer: IC50 (Wee-1 kinase): ≤ 30 nM; IC50 (HT29 cells): ≤ 1000 nM

Question: For `CC(C)n1cc(-n2c3nc(Nc4ccc(N5CCN(C)CC5)cc4)ncc3c(=O)n2C2CC2)cc(F)c1=O` [Compound 323], which IC50 (Wee-1 kinase) is on record?
Answer: The IC50 was ≤ 30 nM.

Question: What about the IC50 (HT29 cells) of the same compound?
Answer: The IC50 was ≤ 1000 nM.

Question: With `Cc1cc(Nc2ncc3c(=O)n(C4CC4)n(-c4cc(F)c(=O)n(C(C)C)c4)c3n2)ccc1N1CCN(C)CC1` [Compound 324] as the compound, how does the IC50 (Wee-1 kinase) read?
Answer: Its IC50 is ≤ 30 nM.

Question: What about the IC50 (HT29 cells) of the same compound?
Answer: Its IC50 is ≤ 1000 nM.

Question: How did the IC50 (Wee-1 kinase) turn out when `Cc1cc(Nc2ncc3c(=O)n(C4CC4)n(-c4cc(F)c(=O)n(C(C)C)c4)c3n2)ccc1C1CCN(C)CC1` [Compound 325] was run?
Answer: Its IC50 is ≤ 30 nM.

Question: And the IC50 (HT29 cells)?
Answer: The IC50 was ≤ 1000 nM.

Question: Which IC50 (Wee-1 kinase) does the source give for `CC(C)n1cc(-n2c3nc(Nc4ccc5c(c4)CN(C)CC54CC4)ncc3c(=O)n2C2CC2)cc(F)c1=O` [Compound 326] here?
Answer: Its IC50 is ≤ 30 nM.

Question: And the IC50 (HT29 cells)?
Answer: Its IC50 is ≤ 1000 nM.

Question: Which IC50 (Wee-1 kinase) does the source give for `C=CCn1c(=O)c2cnc(Nc3ccc(N4CCN(C)CC4)c(C)c3)nc2n1-c1ccc(=O)n(C(C)(C)C)c1` [Compound 327] here?
Answer: Its IC50 is ≤ 30 nM.

Question: And the IC50 (HT29 cells)?
Answer: Its IC50 is ≤ 1000 nM.

Question: How did the IC50 (Wee-1 kinase) turn out when `C=CCn1c(=O)c2cnc(Nc3ccc(C4CCN(C)CC4)c(C)c3)nc2n1-c1ccc(=O)n(C(C)(C)C)c1` [Compound 328] was run?
Answer: The IC50 was ≤ 30 nM.

Question: What about the IC50 (HT29 cells) of the same compound?
Answer: Its IC50 is ≤ 1000 nM.

Question: `C=CCn1c(=O)c2cnc(Nc3ccc4c(c3)CN(C)CC43CC3)nc2n1-c1ccc(=O)n(C(C)(C)C)c1` [Compound 329] was tested. Which IC50 (Wee-1 kinase) did it give?
Answer: Its IC50 is ≤ 30 nM.

Question: And the IC50 (HT29 cells)?
Answer: Its IC50 is ≤ 1000 nM.

Question: Which IC50 (Wee-1 kinase) does the source give for `CCn1c(=O)c2cnc(Nc3ccc(N4CCN(C)CC4)cc3)nc2n1-c1ccc(=O)n(C(C)(C)C)c1` [Compound 330] here?
Answer: Its IC50 is ≤ 30 nM.

Question: And the IC50 (HT29 cells)?
Answer: The IC50 was ≤ 1000 nM.

Question: Which results are given for `CCn1c(=O)c2cnc(Nc3ccc(N4CCN(C)CC4)c(C)c3)nc2n1-c1ccc(=O)n(C(C)(C)C)c1` [Compound 331]?
Answer: IC50 (Wee-1 kinase): ≤ 30 nM; IC50 (HT29 cells): ≤ 1000 nM

Question: Which IC50 (Wee-1 kinase) does the source give for `CCn1c(=O)c2cnc(Nc3ccc(C4CCN(C)CC4)c(C)c3)nc2n1-c1ccc(=O)n(C(C)(C)C)c1` [Compound 332] here?
Answer: The IC50 was ≤ 30 nM.

Question: What about the IC50 (HT29 cells) of the same compound?
Answer: Its IC50 is ≤ 1000 nM.

Question: Which IC50 (Wee-1 kinase) does the source give for `CCn1c(=O)c2cnc(Nc3ccc4c(c3)CN(C)CC43CC3)nc2n1-c1ccc(=O)n(C(C)(C)C)c1` [Compound 333] here?
Answer: Its IC50 is ≤ 30 nM.

Question: And the IC50 (HT29 cells)?
Answer: The IC50 was ≤ 1000 nM.

Question: For `CC(C)n1c(=O)c2cnc(Nc3ccc(N4CCN(C)CC4)cc3)nc2n1-c1ccc(=O)n(C(C)(C)C)c1` [Compound 334], which IC50 (Wee-1 kinase) is on record?
Answer: The IC50 was ≤ 30 nM.

Question: And the IC50 (HT29 cells)?
Answer: Its IC50 is ≤ 1000 nM.

Question: How did the IC50 (Wee-1 kinase) turn out when `Cc1cc(Nc2ncc3c(=O)n(C(C)C)n(-c4ccc(=O)n(C(C)(C)C)c4)c3n2)ccc1N1CCN(C)CC1` [Compound 335] was run?
Answer: Its IC50 is ≤ 30 nM.

Question: What about the IC50 (HT29 cells) of the same compound?
Answer: The IC50 was ≤ 1000 nM.

Question: What does the source list for `Cc1cc(Nc2ncc3c(=O)n(C(C)C)n(-c4ccc(=O)n(C(C)(C)C)c4)c3n2)ccc1C1CCN(C)CC1` [Compound 336]?
Answer: IC50 (Wee-1 kinase): ≤ 30 nM; IC50 (HT29 cells): ≤ 1000 nM

Question: For `CC(C)n1c(=O)c2cnc(Nc3ccc4c(c3)CN(C)CC43CC3)nc2n1-c1ccc(=O)n(C(C)(C)C)c1` [Compound 337], which IC50 (Wee-1 kinase) is on record?
Answer: Its IC50 is ≤ 30 nM.

Question: What about the IC50 (HT29 cells) of the same compound?
Answer: The IC50 was ≤ 1000 nM.

Question: Which IC50 (Wee-1 kinase) does the source give for `CN1CCN(c2ccc(Nc3ncc4c(=O)n(C5CC5)n(-c5ccc(=O)n(C(C)(C)C)c5)c4n3)cc2)CC1` [Compound 338] here?
Answer: The IC50 was ≤ 30 nM.

Question: And the IC50 (HT29 cells)?
Answer: Its IC50 is ≤ 1000 nM.

Question: How did the IC50 (Wee-1 kinase) turn out when `Cc1cc(Nc2ncc3c(=O)n(C4CC4)n(-c4ccc(=O)n(C(C)(C)C)c4)c3n2)ccc1N1CCN(C)CC1` [Compound 339] was run?
Answer: The IC50 was ≤ 30 nM.

Question: And the IC50 (HT29 cells)?
Answer: Its IC50 is ≤ 1000 nM.

Question: With `Cc1cc(Nc2ncc3c(=O)n(C4CC4)n(-c4ccc(=O)n(C(C)(C)C)c4)c3n2)ccc1C1CCN(C)CC1` [Compound 340] as the compound, how does the IC50 (Wee-1 kinase) read?
Answer: Its IC50 is ≤ 30 nM.

Question: And the IC50 (HT29 cells)?
Answer: The IC50 was ≤ 1000 nM.

Question: For `CN1Cc2cc(Nc3ncc4c(=O)n(C5CC5)n(-c5ccc(=O)n(C(C)(C)C)c5)c4n3)ccc2C2(CC2)C1` [Compound 341], which IC50 (Wee-1 kinase) is on record?
Answer: Its IC50 is ≤ 30 nM.

Question: And the IC50 (HT29 cells)?
Answer: Its IC50 is ≤ 1000 nM.
